This is an account of results in patent publication US12686664B2, “SOCE inhibitors and therapeutic uses thereof” (Institut National de la Santé et de la Recherche Médicale …, priority 2020, dated 2026).

The subject of this test is store-operated Ca^2+ entry in PLP-B lymphocytes. The test can be described thus: Store-operated Ca2+ entry after thapsigargin depletion of ER Ca2+ stores in PLP-B lymphocytes. In kind it is cell-based. Here is the method: The effects of the molecules developed were tested on PLP-B lymphocytes. Store-operated Ca^2+ entry was induced by depletion of Endoplasmic Reticulum Ca^2+ stores (ER Ca^2+ stores) with thapsigargin (Tg) in a Ca^2+-free medium and measured following the addition of 1.8 mM of CaCl2) in the extracellular medium. The results are compared to the results obtained for known SOCE inhibitors SKF-96365, GSK-7975A, Synta 66.

Where [1] appears, read: Lymphocyte, 10 μM, PLP-B lymphocytes, % of inhibition (−) or activation, DMSO control 100%, read-out: Effect on amplitude of SOCE Peak.
Where [2] appears, read: Lymphocyte, 10 μM, thapsigargin (Tg) peak, PLP-B lymphocytes, % of inhibition (−) or activation, read-out: Effect on amplitude of Tg Peak.
Setting [3] is: Lymphocyte, 50 μM, PLP-B lymphocytes, % of inhibition (−) or activation, DMSO control 100%, read-out: Effect on amplitude of SOCE Peak.
Where [4] appears, read: Lymphocyte, 50 μM, thapsigargin (Tg) peak, PLP-B lymphocytes, % of inhibition (−) or activation, read-out: Effect on amplitude of Tg Peak.
The mark [5] stands for this setting: Lymphocyte, 100 μM, PLP-B lymphocytes, % of inhibition (−) or activation, DMSO control 100%, read-out: Effect on amplitude of SOCE Peak.
[6] abbreviates: Lymphocyte, 100 μM, thapsigargin (Tg) peak, PLP-B lymphocytes, % of inhibition (−) or activation, read-out: Effect on amplitude of Tg Peak.
[7] abbreviates: Lymphocyte, PLP-B lymphocytes, % of inhibition (−) or activation, DMSO control 100%, read-out: Effect on amplitude of SOCE Peak.
Setting [8] is: Lymphocyte, thapsigargin (Tg) peak, PLP-B lymphocytes, % of inhibition (−) or activation, read-out: Effect on amplitude of Tg Peak.
[9] abbreviates: Lymphocyte, 1 μM, PLP-B lymphocytes, % of inhibition (−) or activation, DMSO control 100%, read-out: Effect on amplitude of SOCE Peak.
[10] abbreviates: Lymphocyte, 1 μM, thapsigargin (Tg) peak, PLP-B lymphocytes, % of inhibition (−) or activation, read-out: Effect on amplitude of Tg Peak.

pIC50: −log10 of the molar value. Where two headings read alike, the source gives them in different places. Marks after values point to notes of the source that are not given here.

With `COc1ccc(COc2ccc(CCn3cnc4ccccc43)cc2)cc1` [6αz DAD 4-472], the inhibition at 10 µM by setting is: under setting [1], 15.4%; under setting [2], 1.6%. Also, the inhibition at 50 µM by setting is: under setting [3], 13.7%; under setting [4], 1.9%. Moreover, the inhibition at 100 µM runs as follows: under setting [5], -5.9%; under setting [6], 1.5%.

As for `FC(F)(F)c1cc(C(F)(F)F)n(CCc2ccccc2OCCc2ccccc2)n1` [6βaa DAD 3.535], the inhibition at 10 µM came to 18% under setting [1] and 8% under setting [2]. The inhibition at 50 µM runs as follows: under setting [3], 20%; under setting [4], 4%. Further, the inhibition at 100 µM came to 29% under setting [5] and 11% under setting [6].

As to `COc1ccc(CCCOc2ccc(CCn3cncn3)cc2)cc1` [6βe DAD 3.470], the “Effect on amplitude of SOCE peak” value is given as −6.0% (50 μM, PLP-B lymphocytes, % of inhibition (−) or activation, DMSO control 100%, listed as 6βe) and −21.0# % (100 μM, PLP-B lymphocytes, % of inhibition (−) or activation, DMSO control 100%, listed as 6βe). Further, the “Effect on amplitude of Tg Peak” value (50 μM, thapsigargin (Tg) peak, PLP-B lymphocytes, % of inhibition (−) or activation, listed as 6βe) is listed as −31.0# %. For the same molecule, the inhibition at 100 µM under setting [6] is 31%.

Turning to `COc1ccc(COc2ccc(CCn3cnc(C(F)(F)F)n3)cc2)cc1` [6βg DAD 3.472], the inhibition at 50 µM under setting [3] came to 5% and the inhibition at 50 µM under setting [4] was 18%. For the same molecule, the inhibition at 100 µM under setting [5] was 37% and the inhibition at 100 µM under setting [6] amounted to 25%.

On to `FC(F)(F)c1ncn(CCc2ccc(OCCCc3ccccc3)cc2)n1` [6βi DAD 3.475], for which the inhibition at 50 µM was found to be 13% under setting [3] and 6% under setting [4]. Besides, the inhibition at 100 µM came to 43% under setting [5] and 7% under setting [6].

As for `COc1ccc(COc2ccc(CCn3cccn3)cc2)cc1` [6βm DAD 2.306], the inhibition at 10 µM under setting [1] was -2%. In addition, under setting [3], the inhibition at 50 µM was -0.5%. Moreover, the inhibition at 100 µM under setting [5] is -16.8%.

For `COc1ccc(CCOc2ccc(CCn3cccn3)cc2)cc1` [6βn DAD 2.307], the inhibition at 10 µM under setting [1] is -6.5%. For the same molecule, under setting [3], the inhibition at 50 µM is 7.2%. In addition, the inhibition at 100 µM under setting [5] turned out to be 62%.

As to `COc1ccc(COc2ccc(CCn3ccc(C(F)(F)F)n3)cc2)cc1` [6βq DAD 2.333], the inhibition at 50 µM under setting [3] amounted to 5%. Moreover, under setting [5], the inhibition at 100 µM was 37%.

Consider `FC(F)(F)c1ccn(CCc2ccc(OCCCc3ccccc3)cc2)n1` [6βt DAD 3.363], for which the inhibition at 50 µM under setting [3] was determined as 7.7%. Also, the inhibition at 100 µM under setting [5] came out at 19.1%.

For `COc1ccc(COc2ccc(CCn3nc(C(F)(F)F)cc3C(F)(F)F)cc2)cc1` [6βu DAD 2.334], the inhibition at 10 µM under setting [1] turned out to be 2%. Under setting [3], the inhibition at 50 µM is -0.2%. Under setting [5], the inhibition at 100 µM was -0.4%.

With `COc1ccc(CCOc2ccc(CCn3nc(C(F)(F)F)cc3C(F)(F)F)cc2)cc1` [6βv DAD 2.266], the inhibition at 50 µM under setting [3] turned out to be 29%. Moreover, the inhibition at 100 µM under setting [5] came out at 30%.

Consider `COc1ccc(CCCOc2ccc(CCn3nc(C(F)(F)F)cc3C(F)(F)F)cc2)cc1` [6βw DAD 2.335], for which the inhibition at 10 µM under setting [1] is 4.6%. In addition, under setting [3], the inhibition at 50 µM is -0.1%. The inhibition at 100 µM under setting [5] is 11.8%.

On to `COc1ccc(CCCOc2cccc(CCn3ccc(C(F)(F)F)n3)c2)cc1` [6βy DAD 3.531], for which the inhibition at 10 µM runs as follows: under setting [1], 13%; under setting [2], 17%. In addition, the inhibition at 50 µM is 34% under setting [3] and 23% under setting [4]. The inhibition at 100 µM stood at 64% under setting [5] and 30% under setting [6].

With `COc1ccc(CCOc2ccccc2CCn2nc(C(F)(F)F)cc2C(F)(F)F)cc1` [6βz DAD 3.536], the inhibition at 10 µM by setting is: under setting [1], 30%; under setting [2], 9%. Moreover, the inhibition at 50 µM under setting [3] worked out at 37% and the inhibition at 50 µM under setting [4] is 12%. Besides, the inhibition at 100 µM runs as follows: under setting [5], 40%; under setting [6], 8%.

For the molecule `CS(=O)(=O)Oc1ccc(Cn2cnc3ccccc32)cc1` [8αa, 4-((1H-Benzo[d]imidazol-1-yl)methyl)phenyl methanesulfonate], the inhibition at 10 µM under setting [1] was found to be 20% and the inhibition at 10 µM under setting [2] was -1%. The inhibition at 50 µM by setting is: under setting [3], 9%; under setting [4], -5%. In addition, the inhibition at 100 µM by setting is: under setting [5], 23%; under setting [6], 7%.

For `CS(=O)(=O)Oc1ccc(Cn2c(C(F)(F)F)nc3ccccc32)cc1` [8αc, 4-((2-(Trifluoromethyl)-1H-benzo[d]imidazol-1-yl)methyl)phenyl methane sulfonate], the inhibition at 10 µM is, setting by setting: under setting [1], 14%; under setting [2], -10%. The inhibition at 50 µM under setting [3] turned out to be 9% and the inhibition at 50 µM under setting [4] is -10%. For the same molecule, the inhibition at 100 µM by setting is: under setting [5], 24%; under setting [6], 32%.

`CS(=O)(=O)Oc1ccc(Cn2cccn2)cc1` [8βa, 4-((1H-Pyrazol-1-yl)methyl)phenylmethanesulfonate]: the “Effect on amplitude of SOCE peak” value reads like this: (10 μM, PLP-B lymphocytes, % of inhibition (−) or activation, DMSO control 100%) −30.0# %; (50 μM, PLP-B lymphocytes, % of inhibition (−) or activation, DMSO control 100%) −27.0# %; (100 μM, PLP-B lymphocytes, % of inhibition (−) or activation, DMSO control 100%) −25.0# %. For the same molecule, the “Effect on amplitude of Tg Peak” value is on record as −20.0# % (10 μM, thapsigargin (Tg) peak, PLP-B lymphocytes, % of inhibition (−) or activation); −14.0// % (50 μM, thapsigargin (Tg) peak, PLP-B lymphocytes, % of inhibition (−) or activation); −12.0// % (100 μM, thapsigargin (Tg) peak, PLP-B lymphocytes, % of inhibition (−) or activation).

Consider `CS(=O)(=O)Oc1ccc(Cn2cncn2)cc1` [8βb, 4-((1H-1,2,4-Triazol-1-yl)methyl)phenyl methanesulfonate], for which the inhibition at 0.1 µM reads like this: under setting [7], 19%; under setting [8], 23%. Also, the inhibition at 1 µM reads like this: under setting [9], 23%; under setting [10], 9%. The inhibition at 10 µM under setting [1] was 27% and the inhibition at 10 µM under setting [2] turned out to be 3%. The inhibition at 50 µM was 41% under setting [3] and -2% under setting [4]. In addition, the inhibition at 100 µM reads like this: under setting [5], 35%; under setting [6], 6%.

Turning to `CS(=O)(=O)Oc1ccc(Cn2nc(C(F)(F)F)cc2C(F)(F)F)cc1` [8βc], the inhibition at 10 µM is 12% under setting [1] and -4% under setting [2]. In addition, the inhibition at 50 µM stood at 22% under setting [3] and 2% under setting [4]. Also, the inhibition at 100 µM reads like this: under setting [5], 31%; under setting [6], 21%.

For the molecule `Oc1ccc(Cn2cnc3ccccc32)cc1` [9αa, 1-(4-hydroxyphenylmethyl)-1H-Benzo[d]imidazol], the inhibition at 10 µM under setting [1] was -2% and the inhibition at 10 µM under setting [2] was -13%. The inhibition at 50 µM worked out at 4% under setting [3] and 1% under setting [4]. Moreover, the inhibition at 100 µM by setting is: under setting [5], -3%; under setting [6], 12%.

For `Oc1ccc(Cn2c(C(F)(F)F)nc3ccccc32)cc1` [9αc, 1-(4-hydroxyphenylmethyl)-2-trifluoromethyl-1H-Benzo[d]imidazol], the inhibition at 10 µM is, setting by setting: under setting [1], 23%; under setting [2], 6%. Also, the inhibition at 50 µM under setting [3] stood at 16% and the inhibition at 50 µM under setting [4] is -1%. Also, the inhibition at 100 µM under setting [5] was determined as 33% and the inhibition at 100 µM under setting [6] was -6%.

With `Oc1ccc(Cn2cnc3cc(F)ccc32)cc1` [9αe], the inhibition at 10 µM by setting is: under setting [1], -6%; under setting [2], 3%. Further, the inhibition at 50 µM reads like this: under setting [3], 5%; under setting [4], 8%. In addition, the inhibition at 100 µM by setting is: under setting [5], 21%; under setting [6], 15%.

Turning to `c1ccc2c(c1)ncn2CCc1ccc(OCCc2ccc(OC3CCCCO3)cc2)cc1` (stereo not drawn) [11αb, 1-(4-(4-((Tetrahydro-2H-pyran-2-yl)oxy)phenethoxy)phenethyl)-1H-benzo[d]imidazole], the inhibition at 0.1 µM runs as follows: under setting [7], -28%; under setting [8], -11%. Further, the inhibition at 1 µM under setting [9] was -41%. The percent change in peak amplitude vs DMSO control (negative = inhibition, positive = activation) at 1 µM under setting [10] turned out to be 0%. The inhibition at 5 µM was -16% under setting [7] and 2% under setting [8]. Besides, the inhibition at 10 µM is, setting by setting: under setting [1], 29%; under setting [2], -2%. The inhibition at 50 µM was 51% under setting [3] and 2% under setting [4]. For the same molecule, where the note is “Lymphocyte, SOCE in PLP-B lymphocytes, average of three assays, ±0.5 μM”, the pIC50 – broadly, −log10 of the IC50, conventionally taken in molar units – is 5.17.
